These results are taken from paper PMC11968506, “Toxicokinetics and analytical toxicology of the phenmetrazine-derived new psychoactive substance 3,4-methylenedioxyphenmetrazine studied by means of in vitro systems” (Archives of Toxicology, 2025).

One data set deals with CYP2D6 (Homo sapiens, UniProt P10635). The experiment in a line: CYP inhibition cocktail assay in pHLM, CYP2D6 (dextromethorphan). How it is done: (§1) A modified dual-cocktail based method (Dinger et al. [2014b]) was used. Substrate cocktail A consisted of 8.9 µM dextromethorphan (CYP2D6), 86 µM testosterone (CYP3A4), 3.5 µM diclofenac (CYP2C9), and 12 µM phenacetin (CYP1A2). Substrate cocktail B included 30 µM bupropion (CYP2B6), 2 µM amodiaquine (CYP2C8) and 21 µM omeprazole (CYP2C19). Substrate concentrations were near their respective Michaelis–Menten constant (Km) values (Dinger et al. [2014a]) and all concentrations are final. Enzyme inhibition was investigated using a positive control, a test group, a control group, an interference group, and a negative control. In the test group, specific inhibitors were replaced by MDPM (20 µM). Instead of inhibitors, phosphate buffer was used in the control group. Enzymes were replaced with phosphate buffer in the negative control group. The interference group was incubated like the control group, but the reaction was stopped with 20 µM MDPM in acetonitrile, also containing 2.5 µM trimipramine-d3. All groups were incubated with a NADPH-regenerating system, consisting of 5 mM isocitrate, 2 U/mL isocitrate dehydrogenase, 5 mM Mg^2+, and 1.2 mM NADP^+. Further, substrate cocktail A or B, 90 mM phosphate buffer (pH 7.4), and 200 U/mL superoxide dismutase were added to each group. […] All groups were preincubated for 10 min at 37 °C. Then, pHLM (0.4 mg microsomal protein/mL) was added to each group except the negative control. Incubations were done for 15 min at 37 °C. Therefore, 50 µL of acetonitrile (− 20 °C) containing 2.5 µM trimipramine-d3 as internal standard was added. Incubations were done in triplicates and organic solvent in the incubation mixture was below 1% (Chauret et al. [1998]). Afterwards the samples were vortexed and centrifuged for 2 min at 18,407×g. 70 µL of the supernatant were transferred to autosampler vials and 10 µL were injected onto the LC-HRMS/MS system. Enzyme inhibition was evaluated by metabolite formation. […] The following settings were used: unpaired; one-tailed; significance level, 0.05; confidence intervals, 99%.
Chain of CYP2D6 (P10635 whole entry): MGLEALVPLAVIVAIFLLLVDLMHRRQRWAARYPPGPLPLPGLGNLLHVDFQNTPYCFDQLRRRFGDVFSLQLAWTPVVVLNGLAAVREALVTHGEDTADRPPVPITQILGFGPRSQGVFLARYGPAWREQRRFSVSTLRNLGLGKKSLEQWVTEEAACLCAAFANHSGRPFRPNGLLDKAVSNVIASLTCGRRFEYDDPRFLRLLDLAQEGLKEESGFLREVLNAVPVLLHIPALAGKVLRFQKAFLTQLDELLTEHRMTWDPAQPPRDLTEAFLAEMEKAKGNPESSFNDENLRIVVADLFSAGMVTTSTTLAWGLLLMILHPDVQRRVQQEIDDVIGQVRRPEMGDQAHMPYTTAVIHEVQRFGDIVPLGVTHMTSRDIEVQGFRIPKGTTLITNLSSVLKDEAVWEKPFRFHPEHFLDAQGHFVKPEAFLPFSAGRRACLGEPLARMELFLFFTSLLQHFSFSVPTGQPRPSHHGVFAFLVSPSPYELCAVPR

A further data set has as its target T1, CYP1A2 (Homo sapiens, UniProt P05177).
T1 sequence (P05177 1-516): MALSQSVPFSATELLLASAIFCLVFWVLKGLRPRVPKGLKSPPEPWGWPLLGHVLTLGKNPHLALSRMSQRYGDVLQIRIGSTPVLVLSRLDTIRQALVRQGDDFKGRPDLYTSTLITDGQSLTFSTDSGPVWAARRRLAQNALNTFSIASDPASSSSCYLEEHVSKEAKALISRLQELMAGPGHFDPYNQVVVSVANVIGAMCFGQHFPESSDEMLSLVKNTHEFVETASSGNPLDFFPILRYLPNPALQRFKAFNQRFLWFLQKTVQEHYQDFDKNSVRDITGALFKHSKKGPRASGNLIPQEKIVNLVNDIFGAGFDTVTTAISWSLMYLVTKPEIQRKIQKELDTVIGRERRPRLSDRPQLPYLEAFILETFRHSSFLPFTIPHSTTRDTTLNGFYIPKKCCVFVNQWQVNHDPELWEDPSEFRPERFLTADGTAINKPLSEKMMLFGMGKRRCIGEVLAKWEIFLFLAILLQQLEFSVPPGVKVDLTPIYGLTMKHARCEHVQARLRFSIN
The experiment in a line: CYP inhibition cocktail assay in pHLM, CYP1A2 (phenacetin). How it is done: A modified dual-cocktail based method (Dinger et al. [2014b]) was used. Substrate cocktail A consisted of 8.9 µM dextromethorphan (CYP2D6), 86 µM testosterone (CYP3A4), 3.5 µM diclofenac (CYP2C9), and 12 µM phenacetin (CYP1A2). Substrate cocktail B included 30 µM bupropion (CYP2B6), 2 µM amodiaquine (CYP2C8) and 21 µM omeprazole (CYP2C19). Substrate concentrations were near their respective Michaelis–Menten constant (Km) values (Dinger et al. [2014a]) and all concentrations are final. Enzyme inhibition was investigated using a positive control, a test group, a control group, an interference group, and a negative control. In the test group, specific inhibitors were replaced by MDPM (20 µM). Instead of inhibitors, phosphate buffer was used in the control group. Enzymes were replaced with phosphate buffer in the negative control group. The interference group was incubated like the control group, but the reaction was stopped with 20 µM MDPM in acetonitrile, also containing 2.5 µM trimipramine-d3. All groups were incubated with a NADPH-regenerating system, consisting of 5 mM isocitrate, 2 U/mL isocitrate dehydrogenase, 5 mM Mg^2+, and 1.2 mM NADP^+. Further, substrate cocktail A or B, 90 mM phosphate buffer (pH 7.4), and 200 U/mL superoxide dismutase were added to each group. […] All groups were preincubated for 10 min at 37 °C. […] Enzyme inhibition was evaluated by metabolite formation. […]

Another data set addresses CYP2C9 (Homo sapiens, UniProt P11712). Put plainly: CYP inhibition cocktail assay in pHLM, CYP2C9 (diclofenac). The conditions noted are these: inhibitor 20 µM. How it is done:
as §1

The target in a further data set is T2, CYP2B6 (Homo sapiens, UniProt P20813).
T2 sequence (P20813 1-491): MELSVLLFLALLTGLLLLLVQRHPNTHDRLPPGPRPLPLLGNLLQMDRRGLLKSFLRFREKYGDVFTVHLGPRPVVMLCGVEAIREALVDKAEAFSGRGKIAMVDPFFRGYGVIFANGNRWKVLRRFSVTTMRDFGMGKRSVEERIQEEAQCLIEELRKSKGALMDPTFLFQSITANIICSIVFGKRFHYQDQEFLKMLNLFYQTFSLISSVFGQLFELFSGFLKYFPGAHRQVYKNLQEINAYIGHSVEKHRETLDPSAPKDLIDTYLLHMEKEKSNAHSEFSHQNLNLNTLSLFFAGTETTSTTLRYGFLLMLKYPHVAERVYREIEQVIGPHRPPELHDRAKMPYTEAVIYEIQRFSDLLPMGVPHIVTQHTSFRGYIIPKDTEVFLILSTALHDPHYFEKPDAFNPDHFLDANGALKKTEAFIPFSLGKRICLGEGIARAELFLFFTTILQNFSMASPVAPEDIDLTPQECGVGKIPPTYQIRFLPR
Put plainly: CYP inhibition cocktail assay in pHLM, CYP2B6 (bupropion). The conditions noted are these: inhibitor 20 µM. Here is the method:
as §1

Chain of CYP2C9 (P11712 whole entry): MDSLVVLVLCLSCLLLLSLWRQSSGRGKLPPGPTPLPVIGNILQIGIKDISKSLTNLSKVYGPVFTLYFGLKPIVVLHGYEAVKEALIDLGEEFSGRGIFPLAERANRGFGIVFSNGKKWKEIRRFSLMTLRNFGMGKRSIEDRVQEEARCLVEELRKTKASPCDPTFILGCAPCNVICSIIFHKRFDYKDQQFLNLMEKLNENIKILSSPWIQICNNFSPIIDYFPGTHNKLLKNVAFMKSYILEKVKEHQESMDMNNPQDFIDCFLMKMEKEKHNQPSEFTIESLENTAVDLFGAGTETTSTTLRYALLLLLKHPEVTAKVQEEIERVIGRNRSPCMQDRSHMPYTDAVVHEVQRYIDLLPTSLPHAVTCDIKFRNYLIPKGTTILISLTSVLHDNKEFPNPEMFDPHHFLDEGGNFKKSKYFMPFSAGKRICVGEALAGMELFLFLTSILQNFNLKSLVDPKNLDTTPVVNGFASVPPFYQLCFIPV

As for `CC1NCCOC1c1ccc2c(c1)OCO2` (centres unmarked) [MDPM, 2-(1,3-benzodioxol-5-yl)-3-methylmorpholine], the inhibition – broadly, how much of the control response was suppressed – at 15 min, 20 µM against CYP2D6 (human, pH 7.4) worked out at 77%; against CYP1A2 (human, pooled human liver microsomes (pHLM), pH 7.4, probe phenacetin (12 µM)), 39%. In addition, the CYP2D6 metabolite formation on CYP2D6 (inhibitor 20 µM, dextromethorphan 8.9 µM, pHLM 0.4 mg/mL, 15 min, control without inhibitor = 100%) was found to be 23%. The CYP1A2 metabolite formation at CYP1A2 (inhibitor 20 µM, phenacetin 12 µM, pHLM 0.4 mg/mL, 15 min, control without inhibitor = 100%) was determined as 61%. For the same molecule, the CYP2C9 metabolite formation at CYP2C9 (diclofenac 3.5 µM, pHLM 0.4 mg/mL, 15 min, control without inhibitor = 100%) is listed as 115%. Also, at CYP2C9 (diclofenac, pHLM, t-test versus control), the “inhibition of CYP2C9” value was “no significant inhibition”. Further, the CYP2B6 metabolite formation at CYP2B6 (bupropion 30 µM, pHLM 0.4 mg/mL, 15 min, control without inhibitor = 100%) turned out to be 113%. The “inhibition of CYP2B6” value on CYP2B6 (bupropion, pHLM, t-test versus control) is reported as “no significant inhibition”.
